Laboratory results as given in patent US20240368644A1, “METHODS TO PRODUCE THERAPEUTIC FORMULATIONS COMPRISING HYDROXYBUTIRATE AND HYDROXYVALERATE, THERAPEUTIC FORMULATIONS AND USES THEREOF” (PHB Industrial S.A., priority 2021, published 2024).

How the values were obtained:
[1] = test system: patients with glucose transporter 1 deficiency syndrome (GLUT1); settings: cited from earlier work
[2] = Increase in circulating ketone level after administration of D-BHB, D-BHV and D-1,3BD in various ratios, subjects at rest; assay type: in vivo, human; settings: for Max change in mMol/L (increase in circulating ketone level): 10 g dose, three human subjects at rest, composition given as % D-BHB acid; for prolonged rise of blood ketone levels: based on measured plasma levels of FIG. 1
Text: (§1) Examples include using a composition including D-BHB, D-BHV, and D-1,3BD in a subject at rest. The ketotic efficiency represents the net elevation of circulating ketones a ketone supplement affects over time in an individual. Ketotic efficiency may be represented as:
As illustrated by the examples of FIG. 1, these exemplary compositions can advantageously elevate circulating ketones by approximately two times greater than other known compositions. Such a composition can sustain ketonemia for longer than either D-BHB or D-1,3BD can when ingested alone by a subject of a given weight as shown by the 100% line (i.e., contains D-BHB, but not D-1,3BD) and the 0% line (i.e., contains only D-1,3BD, but not D-BHB).
As shown in the following table, the increase in circulating ketone level with a 10 g dose in three human subjects at rest was maximal at between 45-55% D-BHB in the tested compositions.

[3] = Ketotic efficiency (net elevation of circulating ketones over time per dose); assay type: in vivo, human; settings: person at rest, concentration of DBHB + DBHV in composition with D-1,3BD; for 1 hour ketotic efficiency: 1 hour post-administration; for 2 hours ketotic efficiency: 2 hours post-administration
Text: as §1
where mMol/L is the concentration of circulating p-hydroxybutyrate in the blood, g is the total dose of the combined D-BHB, D-BHV, and D-1,3,BD in grams, kg is the mass of the individual in kilograms, and t is an increment of time in minutes.
The ketotic efficiency of the D-BHB, D-BHV, and D-1,3BD blend measured over of one hour in this exemplary study is 43% to 104% greater than the administration of pure (D)-1,3 butanediol or pure (D)-β-hydroxybutyric acid alone, respectively. While this example pertains to a fasted subject at rest, the relative utility of blended vs pure constituents has also been observed in fed and active subjects.
FIG. 2 represents the expected ketosis for a person at rest with a 0.13 g/kg dose of (D)-β-hydroxybutyric acid, (D)-β-hydroxyvaleric acid, and (D)-1,3 butanediol over time for the periods shown. […] Administration of examples in accordance with the present disclosure are expected to cause efficient, prolonged rises in circulating blood ketone levels in a manner that is unexpected based on the current literature. As shown in the following table, the highest efficiency at both 1 and 2 hours post-administration was obtained at 45% D-BHB+D-BHV (0.96:0.04) to 55% D-1,3BD and the lowest efficiency was observed when administering D-BHB or D-1,3BD alone.

SMILES | decrease of paroxysmal non-epileptic manifestations [1] [%] | Max change in mMol/L (increase in circulating ketone level) [2] [mmol/L] | prolonged rise of blood ketone levels [2] | 1 hour ketotic efficiency [3] [kg·mmol·min/g/L] | 2 hours ketotic efficiency [3] [kg·mmol·min/g/L]
CCCCCCC(=O)OCC(COC(=O)CCCCCC)OC(=O)CCCCCC [triheptanoin, Triheptanoin] | 90 |  |  |  | 
CC(O)CCO (stereo not drawn) [0%, (D)-1,3 butanediol] |  | 0.8 | does not cause a prolonged rise of blood ketone levels | 266 | 462
CC(O)CC(=O)O (stereo not drawn) [100%, (D)-β-hydroxybutyric acid] |  | 0.9 | A similar result | 335 | 566
